Experimental data published in paper PMC10060354, “Discovery of a small molecule ligand of FRS2 that inhibits invasion and tumor growth” (Cellular Oncology, 2022).
Values after ≈ are worked out from the molar mass of the structure shown. Where two headings read alike, the source gives them in different places.

Key:
DAOY cells = assay: Spheroid invasion assay (SIA), bFGF-induced collagen I invasion; type: cell-based, human; conditions: for EC50: DAOY cells, n = 3 technical replicas, read-out: EC50 for the inhibition of bFGF-induced collagen I invasion; for functional activity in SIA (result in words): DAOY, bFGF-induced, 1, 5 and 10 µM
Outline: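 Spheroids formed over 24–72 h were embedded in collagen I (final 1.75 mg/ml) and stimulated with bFGF (100 ng/ml unless stated), HGF 30 ng/ml or EGF 20 ng/ml with compound in DMSO. Invasion distance was quantified 24–48 h after embedding.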

[1] = system: bFGF-sensitive (M059K, RT-112, SW780) and bFGF-insensitive (SKOV3, AGS and HCT116) cell lines; assay: SIA, collagen I invasion in panel of human cancer cell models; type: cell-based; conditions: 10 µM
Method: 1000—2500 cells/well in 100 μl were seeded in 96 well Corning® Spheroid microplate (CLS4520, Sigma-Aldrich) or in cell-repellent 96 well microplate (650,790, Greiner Bio-one). SIA and analysis was performed as described before. In brief: After spheroid formation (24 – 72 h after seeding), 70 µl medium was removed and replaced with the collagen mixture (2.5 mg/ml Pure Col Collagen I (Advanced Biomatrix)), DMEM 1x (from 10 × stock, Sigma, D2429) and 0.4% Sodium bicarbonate (Sigma, S8761)), resulting in a final collagen concentration of 1.75 mg/ml. Embedded spheroids were stimulated with bFGF (100 ng/ml if not otherwise stated), HGF (30 ng /ml) or EGF (20 ng/ml) and distance of invaded cells quantified 24 – 48 h after embedding. Compounds and BGJ398 were added in Dimethylsulfoxid (DMSO) and corresponding DMSO concentrations were used in control samples.

[2] = Microsomal metabolic stability; type: in vitro ADME; conditions: human, pooled liver microsomes; for half-life at 1 µM: pH 7.4, liver microsomes; for microsomal CLint at 1 µM: pH 7.4, read-out: Metabolic stability - Intrinsic clearance (CI)
Method: Pooled liver microsomes were purchased from Xenotech (H0500) and were stored according to manufacturer’s instructions prior to use. […] A minus co-factor control incubation was included for each compound tested where 0.1 M phosphate buffer pH 7.4 was added instead of NADPH. Two control compounds were included with each species. All incubations were performed singularly for each shortlisted hit. Each compound was incubated for 0, 5, 15, 30 and 45 min. The minus co-factor was incubated for 45 min only. The reactions were stopped by transferring incubate into acetonitrile at the appropriate time points in a 1:3 ratio. The termination plates were centrifuged at 3000 rpm for 20 min at 4 °C to precipitate the protein. Following protein precipitation, the supernatant were combined in cassette of up to 4 compounds, internal standard for MS analysis was added and samples were analyzed using LC–MS/MS. From a plot of In peak area ratio (compound peak area/internal standard peak area) against time, the gradient of the lines were determined. Subsequently, half-life and intrinsic clearance were calculated using the following equations. Eliminationrateconstant(k)=(-gradient)Half-life(t1/2)(min)=0.693/kIntrinsicclearance(CLint)(μl/min/mgprotein)=Vx0.693/t1/2 where V = Incubation volume (µl) / Microsomal protein (mg)

[3] = CaCo-2 permeability (bi-directional); conditions: human
Method: Caco-2 cells obtained from the ATCC were used between passage numbers 40—60. Cells were seeded onto Millipore Multiscreen Transwell plates at 1 × 10^5 cells/cm^2. The cells were cultured in DMEM and media was changed every two or three days. On day 20, the permeability study was performed. […] Cells were then incubated with HBSS at the desired pH in both apical and basolateral compartments for 40 min to stabilize physiological parameters.
The fluorescent integrity marker lucifer yellow was also included in the dosing solution. Analytical standards were prepared from test compound DMSO dilutions and transferred to buffer, maintaining a 1% v/v DMSO concentration.
For assessment of A-B permeability, HBSS was removed from the apical compartment and replaced with test compound dosing solution. The apical compartment insert was then placed into a companion plate containing fresh buffer (containing 1% v/v DMSO). For assessment of B-A permeability, HBSS was removed from the companion plate and replaced with test compound dosing solution. Fresh buffer (containing 1% v/v DMSO) was added to the apical compartment insert, which was then placed into the companion plate.
Compound permeability was assessed in duplicate. Compounds of known permeability characteristics were run as controls on each assay plate.
Test and control compounds were quantified by LC–MS/MS cassette analysis using a 7-point calibration with appropriate dilution of the samples. The starting concentration (C0) was determined from the dosing solution and the experimental recovery calculated from C0 and both apical and basolateral compartment concentrations. The integrity of the monolayer throughout the experiment was checked by monitoring lucifer yellow permeation using fluorimetric analysis.
The permeability coefficient (Papp) for each compound was calculated from the following equation: Papp=dQ/dtC0×A where dQ/dt was the rate of permeation of the drug across the cells, C0 was the donor compartment concentration at time zero and A was the area of the cell monolayer. C0 was obtained from analysis of the dosing solution.
Efflux ratio (ER) was calculated from mean A-B and B-A data. This was derived from: ER=Papp(B-A)Papp(A-B)

[4] = system: HepG2 human hepatocellular carcinoma cells; assay: Cell viability (cytotoxicity, MTT) using HepG2; type: cell-based; conditions: for MEC: 72h, 3 replicas, NR = No response (Summary sheet); for MTT (MEC) Minimum effective concentration / MTT (AC50) Conc at which 50% of maximum efficacy is reached: 72 h, summary sheet
Method: HepG2 human hepatocellular carcinoma cells were plated on 96-well tissue culture polystyrene plates for 24 h prior to dosing of the cells. The shortlisted hits were diluted in DMSO and serial dilutions are made 1% DMSO in growth media. Compounds at 8 concentrations in triplicate was then incubated for 72 h. Appropriate blanks and controls were run alongside the assay. One h prior to the end of the incubation period, the cells were loaded with MTT [yellow; 3-(4,5-dimethyl-2-thiazolyl)-2,5-diphenyl-2H-tetrazolium bromide], the plates were dried and re-solubilized using DMSO. The plates were then scanned at 570 nm using a plate reader.
The minimum effective concentration was determined from the lowest concentration whose mean value exceeds the significance level, provided either a clear dose–response relationship was observed, or at least two consecutive concentration points were above the significance level.

[5] = Semi-thermodynamic solubility; type: physicochemical; conditions: for solubility / solubility thermodynamic: PBS, aqueous buffer, thermodynamic from solid; for solubility: Room Temp, Overnight, LC-MSMS; for solubility thermodynamic: overnight; for solubility thermodynamic / Solubility (class in words): summary sheet
Method: In vitro ADME-T assays were performed by Cyprotex (Cyprotex Discovery, Cheshire, UK). […] The solution was agitated at ambient temperature overnight. The solutions were then centrifuged for 30 min at 3000 rpm at RT. The supernatant was removed and centrifuged for a further 30 min under the same conditions. An aliquot of the resulting supernatant was diluted in 50% methanol in water (containing an internal standard for MS analysis) prior to analysis by LC–MS/MS. […] These stocks were diluted in 50% methanol in water (containing an internal standard for MS analysis) prior to analysis by LC–MS/MS. The solubility of the shortlisted hits was calculated from a linear or quadratic fit of the standard curve.

[6] = Caco-2, Mean Papp A-B, Caco-2, summary sheet
[7] = Caco-2, Mean Papp B-A, Caco-2, summary sheet
[8] = Caco-2, pH 7.4, Mean % Recovery A2B, HBSS/HBSS, pH 7.4/7.4
[9] = Caco-2, pH 7.4, Mean % Recovery B2A, HBSS/HBSS, pH 7.4/7.4
[10] = Caco-2, pH 7.4, Mean Papp A2B, HBSS/HBSS, pH 7.4/7.4
[11] = Caco-2, pH 7.4, Mean Papp B2A, HBSS/HBSS, pH 7.4/7.4
[12] = Caco-2, pH 7.4, Papp A2B Replicate 1, HBSS/HBSS, pH 7.4/7.4
[13] = Caco-2, pH 7.4, Papp A2B Replicate 2, HBSS/HBSS, pH 7.4/7.4
[14] = Caco-2, pH 7.4, Papp B2A Replicate 1, HBSS/HBSS, pH 7.4/7.4
[15] = Caco-2, pH 7.4, Papp B2A Replicate 2, HBSS/HBSS, pH 7.4/7.4
[16] = read-out: Solubility Replicate 1
[17] = read-out: Solubility Replicate 2
[18] = read-out: Solubility Replicate 3
[19] = read-out: Solubility Replicate 4

| SMILES | half-life at 1 µM ([2]; read-out: t1/2) [min] | microsomal CLint at 1 µM [2] [µL/min/mg] | efflux ratio at 120 min, 10 μM ([3]; Caco-2) | Papp A→B at 120 min, 10 μM [3, 6] [×10⁻⁶ cm/s] | Papp B→A at 120 min, 10 μM [3, 7] [×10⁻⁶ cm/s] | efflux ratio at 120 min, 10 μM ([3]; Caco-2, pH 7.4) | recovery at 120 min, 10 µM [3, 8] [%] | recovery at 120 min, 10 µM [3, 9] [%] | Papp A→B at 120 min, 10 μM [3, 10] [×10⁻⁶ cm/s] | Papp B→A at 120 min, 10 μM [3, 11] [×10⁻⁶ cm/s] | Papp B→A at 120 min, 10 μM [3, 14] [×10⁻⁶ cm/s] | Papp B→A at 120 min, 10 μM [3, 15] [×10⁻⁶ cm/s] | MTT (MEC) Minimum effective concentration [4] | solubility ([5]; read-out: Mean Solubility) [µM] | solubility [5, 16] [µM] | solubility [5, 17] [µM] | solubility [5, 18] [µM] | solubility [5, 19] [µM] | solubility thermodynamic [5] [µM] | Solubility (class in words) [5] | other results |
| --- | --- | --- | --- | --- | --- | --- | --- | --- | --- | --- | --- | --- | --- | --- | --- | --- | --- | --- | --- | --- | --- |
| COc1ncc(C(C)NC2CC(C)(C)NC(C)(C)C2)cc1Cl (centres unmarked) [Compound 3.3] | 3.91 | 355 | 8.01 | 4.79 | 38.3 | 8.01 | 73.1 | 104 | 4.79 | 38.3 | 39.9 | 36.8 | 75.8 µM | > 100 | > 100 | > 100 | > 100 | > 100 | > 100 | Freely | EC50 (DAOY cells; Homo sapiens, Daoy): 14.3 µM; collagen I invasion across cancer cell lines (result in words) [1]: significant repression of collagen I invasion only in SKOV3 and M059K cells; Papp A→B at 120 min, 10 μM [3, 12]: 4.98 ×10⁻⁶ cm/s; Papp A→B at 120 min, 10 μM [3, 13]: 4.59 ×10⁻⁶ cm/s; MEC [4]: 75.8 µM |
| N#Cc1c(Cl)cc(O)c2c1C1C=CCC1C(c1ccc(Cl)cc1)N2 (centres unmarked) [Compound 14] | 1.64 | 845 |  |  | 2.31 |  | 81.1 | 50.7 |  | 2.31 | 3.4 | 1.22 | 3.93 µM | 24.8 (≈ 8.86 µg/mL) | 25 (≈ 8.93 µg/mL) | 16.6 (≈ 5.93 µg/mL) | 27.2 (≈ 9.72 µg/mL) | 30.3 (≈ 10.8 µg/mL) | 24.8 (≈ 8.86 µg/mL) | Sparingly | functional activity in SIA (result in words) (DAOY cells): reduced invasion comparable to the parent compound 7; collagen I invasion across cancer cell lines (result in words) [1]: inhibited collagen I invasion in both bFGF-sensitive and bFGF-insensitive cell lines; MEC [4]: 3.93 µM |
| O=C(O)c1c(Cl)cc(O)c2c1C1C=CCC1C(c1ccc(Cl)cc1)N2 (centres unmarked) [Compound 13] | 83 | 16.7 | 1.5 | 1.94 | 2.91 | 1.5 | 86.6 | 85 | 1.94 | 2.91 | 2.62 | 3.2 | No response | > 100 | > 100 | > 100 | > 100 | > 100 | > 100 | Freely | functional activity in SIA (result in words) (DAOY cells): mild but dose-depended reduction; Papp A→B at 120 min, 10 μM [3, 12]: 1.02 ×10⁻⁶ cm/s; Papp A→B at 120 min, 10 μM [3, 13]: 2.86 ×10⁻⁶ cm/s; MTT (AC50) Conc at which 50% of maximum efficacy is reached [4]: No response |
| O=[N+]([O-])c1c(Cl)cc(O)c2c1C1C=CCC1C(c1ccc(Cl)cc1Cl)N2 (centres unmarked) [Compound 8] | 3.35 | 414 |  |  | 7.05 |  | 32.1 | 33.3 |  | 7.05 | 7.14 | 6.96 | 6.79 µM | > 100 | > 100 |  | > 100 | > 100 | > 100 | Freely | functional activity in SIA (result in words) (DAOY cells): invasion inhibition only at the highest concentration; MEC [4]: 6.79 µM |
| CC(C)C[C@@H](CO)NCc1cc(O)c2cc(F)ccc2n1 [Compound 3.14] | 29.1 | 47.6 | 8.64 | 4.7 | 40.6 | 8.64 | 70.2 | 73.4 | 4.7 | 40.6 | 40 | 41.2 | No response | > 100 | > 100 | > 100 | > 100 | > 100 | > 100 | Freely | EC50 (DAOY cells): 5.92 µM; EC50 (DAOY cells; Homo sapiens, Daoy): 5.92 µM; half-life at 1 µM ([2]; read-out: t1/2 of clearance (CL1/2), in vitro): 29 min; Papp A→B at 120 min, 10 μM [3, 12]: 4.69 ×10⁻⁶ cm/s; Papp A→B at 120 min, 10 μM [3, 13]: 4.71 ×10⁻⁶ cm/s; toxicity in the MTT assay (result in words) [4]: no toxicity; MTT (AC50) Conc at which 50% of maximum efficacy is reached [4]: No response; solubility (result in words) ([5]; Supplementary Table 2): freely soluble |
